Test results: paper PMC12305662, “Fragment-Based Development of Small Molecule Inhibitors Targeting Mycobacterium tuberculosis Cholesterol Metabolism” (Journal of Medicinal Chemistry, 2025)
≈ marks a conversion by molar mass, not a printed value. Like-named read-outs stand apart in the source and are kept apart here.

Columns and labels:
H37Rv Mtb = experiment: Extracellular Mtb growth, MABA MIC90 (drug susceptible strain); assay type: cell-based; settings: Mycobacterium tuberculosis
CYP142 = CYP142 (Mycobacterium tuberculosis, UniProt P9WPL5)
Chain of CYP142 (P9WPL5 whole entry): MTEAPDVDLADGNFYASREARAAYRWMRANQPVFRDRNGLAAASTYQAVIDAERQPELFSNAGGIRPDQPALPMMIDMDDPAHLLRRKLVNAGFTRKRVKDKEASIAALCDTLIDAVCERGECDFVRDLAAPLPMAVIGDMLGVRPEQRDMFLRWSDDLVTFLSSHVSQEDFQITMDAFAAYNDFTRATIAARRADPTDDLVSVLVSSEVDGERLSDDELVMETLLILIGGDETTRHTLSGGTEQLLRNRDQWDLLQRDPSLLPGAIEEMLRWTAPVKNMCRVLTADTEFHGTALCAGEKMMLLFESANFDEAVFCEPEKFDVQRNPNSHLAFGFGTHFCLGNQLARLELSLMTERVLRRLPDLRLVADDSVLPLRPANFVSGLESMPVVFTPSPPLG

Mtb H37Rv = experiment: Depletion of intracellular ATP (BacTiter Glo), Mtb on cholesterol; assay type: cell-based, Mycobacterium tuberculosis; settings: 2 weeks post-compound treatment
[1] = system: several human P450 isoforms (panel: CYP1A, CYP2C19, CYP2C9, CYP2D6, CYP3A4); experiment: in vitro; assay type: in vitro ADME
Method: As several P450 isoforms were inhibited as concentrations <5 μM, the compound has potential to cause drug–drug interactions and further optimization of the benzylpyridine scaffold to improve CYP125/142 selectivity would be required for in vivo applications.
Table S8. Inhibition of human liver microsomal P450s. Inhibition constants (IC 50 values, µM) of
following substrates: CYP1A-ethoxyresorufin, CYP2C19- mephenytoin, CYP2C9-tolbutamide, CYP2D6-
dextromethorphan, CYP3A4-midazolam/testosterone.

Compound: COc1ccc(CNc2ccc(Cc3ccncc3)cc2)cc1 [5m, N-(4-Methoxybenzyl)-4-(pyridin-4-ylmethyl)aniline]
- MIC90 (H37Rv Mtb; 168 h, read-out: MIC90 (W1) H37Rv): 0.78 µM (≈ 0.237 µg/mL)
- MIC90 (H37Rv Mtb; 336 h, MABA 2 weeks post-compound treatment, read-out: MIC90 (W2) H37Rv): 6.25 µM (≈ 1.9 µg/mL)
- Kd (CYP142): 80 nM
- ΔΔG [5m-1a], CYP142 (CYP142; proportion of binding affinity attributed to the 1a-ii hotspot): 0.2
- IC50 (Mtb H37Rv; Mycobacterium tuberculosis, H37RV, 336 h, H37Rv, bovine serum albumin, read-out: ATP IC50 (W2), cholesterol media with BSA): 2300 nM
- IC50 (Mtb H37Rv; Mycobacterium tuberculosis, H37RV, 336 h, H37Rv, casitone, read-out: ATP IC50 (W2), cholesterol media with casitone): 1500 nM
- IC50 (Mtb H37Rv; Mycobacterium tuberculosis, H37RV, 336 h, cholesterol as sole carbon source, read-out: ATP-IC50 (W2) H37Rv, cholesterol): 1200 nM
- IC50 (Mtb H37Rv; cholesterol as sole carbon source, read-out: ATP-IC50 (W2) H37Rv, cholesterol): 1100 nM
- IC50 [1]: < 5000 nM
